Test results as given in patent US9829495B2, “Method for differentially diagnosing ACTH-dependent Cushing's syndrome” (Corcept Therapeutics, Inc., priority 2015, dated 2017).

System: ACTH from the pituitary gland
Assay: ACTH stimulation after oral mifepristone in persons with normal HPA function
Type: in vivo, human
Conditions: oral dose of 300-1500 mg; persons having normal hypothalamic-pituitary-adrenal axis (HPA) function
Protocol: GRA is administered at a dosage that is sufficient to increase ACTH in the pituitary gland by at least two fold in persons with normal HPA functions. In one embodiment, the GRA is mifepristone. In one embodiment, mifepristone is administered orally to the patient. […] In one embodiment, the GRA is administered at 11 pm the night before IPSS. Following the diagnosis of ACTH dependent Cushing's syndrome, they then undergo IPSS to identify the source of abnormal ACTH secretion, i.e., whether it is pituitary or ectopic. […] Another 0.018 microcatherter is inserted into the peripheral jugular vein. A 5,000 unit bolus of heparin is administered to the veins to prevent venous sinus thrombosis.

SMILES: CC#C[C@]1(O)CC[C@H]2[C@@H]3CCC4=CC(=O)CCC4=C3[C@@H](c3ccc(N(C)C)cc3)C[C@@]21C [mifepristone, 17-β-hydrox-11-β-(4-dimethyl-aminophenyl)17-α-(1-propynyl)estra-4,9-dien-3-one]
- increase ACTH from the pituitary gland: at least two-fold
